Source: ChEMBL document CHEMBL5113485, “Distal kinetic deuterium isotope effect: Phenyl ring deuteration attenuates N-demethylation of Lu AF35700” (Bioorg Med Chem Lett, 2022)

Columns and labels:
[1] = Drug metabolism in human liver microsomes assessed as formation of desmethyl-zicronapine at 10 uM measured after 15 to 180 mins in presence of NADPH regenerating system by LC-MS/MS analysis; format: ADME, Microsome; conditions: time 15-180 min
[2] = target: T1, Cytochrome P450 3A4 (Homo sapiens, UniProt P08684); assay: Drug metabolism assessed as recombinant human liver CYP3A4-mediated formation of d5-desmethyl-zicronapine at 10 uM measured after 15 to 180 mins in presence of zicronapine by LC-MS/MS analysis; format: ADME; conditions: recombinant enzyme, time 15-180 min
T1 sequence (P08684 whole entry): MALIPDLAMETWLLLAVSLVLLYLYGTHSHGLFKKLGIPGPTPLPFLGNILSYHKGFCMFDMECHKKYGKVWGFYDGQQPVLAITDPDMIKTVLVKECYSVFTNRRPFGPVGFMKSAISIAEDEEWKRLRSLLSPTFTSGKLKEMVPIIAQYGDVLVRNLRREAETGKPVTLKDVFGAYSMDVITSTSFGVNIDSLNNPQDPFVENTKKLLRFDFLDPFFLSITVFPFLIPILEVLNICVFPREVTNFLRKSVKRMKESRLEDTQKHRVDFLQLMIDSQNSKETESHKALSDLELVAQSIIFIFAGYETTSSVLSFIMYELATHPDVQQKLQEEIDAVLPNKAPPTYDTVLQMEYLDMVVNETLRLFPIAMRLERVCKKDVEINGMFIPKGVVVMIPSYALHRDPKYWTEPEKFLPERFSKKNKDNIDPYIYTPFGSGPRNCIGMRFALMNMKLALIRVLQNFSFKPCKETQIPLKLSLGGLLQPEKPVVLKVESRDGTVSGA

[3] = target: T2, Cytochrome P450 2C19 (Homo sapiens, UniProt P33261); assay: Drug metabolism assessed as recombinant human liver CYP2C19-mediated formation of d5-desmethyl-zicronapine at 10 uM measured after 15 to 180 mins in presence of zicronapine by LC-MS/MS analysis; format: ADME; conditions: recombinant enzyme, time 15-180 min
T2 sequence (P33261 whole entry): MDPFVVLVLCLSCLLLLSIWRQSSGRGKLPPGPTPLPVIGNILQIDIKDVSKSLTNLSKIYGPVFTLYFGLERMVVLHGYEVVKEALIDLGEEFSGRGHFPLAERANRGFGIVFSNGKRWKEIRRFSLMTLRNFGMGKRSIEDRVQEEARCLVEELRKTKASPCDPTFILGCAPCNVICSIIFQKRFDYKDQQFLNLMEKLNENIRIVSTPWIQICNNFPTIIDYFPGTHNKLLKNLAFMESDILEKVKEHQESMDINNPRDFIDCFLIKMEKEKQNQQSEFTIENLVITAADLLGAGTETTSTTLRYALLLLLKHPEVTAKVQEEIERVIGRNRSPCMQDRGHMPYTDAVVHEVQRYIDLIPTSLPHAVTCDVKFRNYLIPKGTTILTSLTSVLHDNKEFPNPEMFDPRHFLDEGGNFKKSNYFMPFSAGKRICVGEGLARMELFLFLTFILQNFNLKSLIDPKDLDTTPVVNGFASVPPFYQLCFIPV

[4] = Drug metabolism in human liver microsomes assessed as formation of d5-desmethyl-zicronapine at 10 uM measured after 15 to 180 mins in presence of NADPH regenerating system by LC-MS/MS analysis; format: ADME, Microsome; conditions: time 15-180 min
[5] = target: T1, Cytochrome P450 3A4; assay: Drug metabolism assessed as recombinant human liver CYP3A4-mediated formation of desmethyl-zicronapine at 10 uM measured after 15 to 180 mins in presence of Lu AF35700 by LC-MS/MS analysis; format: ADME; conditions: recombinant enzyme, time 15-180 min
[6] = target: T1, Cytochrome P450 3A4; assay: Drug metabolism assessed as recombinant human liver CYP3A4-mediated formation of d5-desmethyl-zicronapine at 10 uM measured after 15 to 180 mins in presence of Lu AF35700 by LC-MS/MS analysis; format: ADME; conditions: recombinant enzyme, time 15-180 min
[7] = target: T1, Cytochrome P450 3A4; assay: Drug metabolism assessed as recombinant human liver CYP3A4-mediated formation of desmethyl-zicronapine at 10 uM measured after 15 to 180 mins in presence of d5-zicronapine by LC-MS/MS analysis; format: ADME; conditions: recombinant enzyme, time 15-180 min
[8] = target: T2, Cytochrome P450 2C19; assay: Drug metabolism assessed as recombinant human liver CYP2C19-mediated formation of desmethyl-zicronapine at 10 uM measured after 15 to 180 mins in presence of d5-zicronapine by LC-MS/MS analysis; format: ADME; conditions: recombinant enzyme, time 15-180 min
[9] = target: T2, Cytochrome P450 2C19; assay: Drug metabolism assessed as recombinant human liver CYP2C19-mediated formation of d5-desmethyl-zicronapine at 10 uM measured after 15 to 180 mins in presence of Lu AF35700 by LC-MS/MS analysis; format: ADME; conditions: recombinant enzyme, time 15-180 min
[10] = target: T2, Cytochrome P450 2C19; assay: Drug metabolism assessed as recombinant human liver CYP2C19-mediated formation of desmethyl-zicronapine at 10 uM measured after 15 to 180 mins in presence of Lu AF35700 by LC-MS/MS analysis; format: ADME; conditions: recombinant enzyme, time 15-180 min
[11] = target: D(3) dopamine receptor (Homo sapiens, UniProt P35462); assay: Displacement of [3H]methyl-spiperone from recombinant human D3 receptor measured after 60 mins by scintillation counting analysis
D(3) dopamine receptor, sequence (P35462 whole entry): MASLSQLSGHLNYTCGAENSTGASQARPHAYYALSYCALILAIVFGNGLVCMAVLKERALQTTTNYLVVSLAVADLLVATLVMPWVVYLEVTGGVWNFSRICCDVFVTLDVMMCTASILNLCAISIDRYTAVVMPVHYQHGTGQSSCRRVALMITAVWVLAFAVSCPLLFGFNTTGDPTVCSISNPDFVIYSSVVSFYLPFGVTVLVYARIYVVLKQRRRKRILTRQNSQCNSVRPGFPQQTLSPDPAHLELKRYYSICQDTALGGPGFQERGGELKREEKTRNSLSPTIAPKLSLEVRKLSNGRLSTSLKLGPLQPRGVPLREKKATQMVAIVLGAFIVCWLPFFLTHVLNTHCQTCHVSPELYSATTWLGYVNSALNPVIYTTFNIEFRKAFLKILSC

[12] = target: Histamine H1 receptor (Homo sapiens, UniProt P35367); assay: Displacement of [3H]pyrilamine from recombinant human H1 receptor measured after 60 mins by scintillation counting analysis
[13] = target: D(1B) dopamine receptor (Homo sapiens, UniProt P21918); assay: Displacement of [3H]SCH 23390 from recombinant human D5 receptor measured after 60 mins by scintillation counting analysis
D(1B) dopamine receptor, sequence (P21918 whole entry): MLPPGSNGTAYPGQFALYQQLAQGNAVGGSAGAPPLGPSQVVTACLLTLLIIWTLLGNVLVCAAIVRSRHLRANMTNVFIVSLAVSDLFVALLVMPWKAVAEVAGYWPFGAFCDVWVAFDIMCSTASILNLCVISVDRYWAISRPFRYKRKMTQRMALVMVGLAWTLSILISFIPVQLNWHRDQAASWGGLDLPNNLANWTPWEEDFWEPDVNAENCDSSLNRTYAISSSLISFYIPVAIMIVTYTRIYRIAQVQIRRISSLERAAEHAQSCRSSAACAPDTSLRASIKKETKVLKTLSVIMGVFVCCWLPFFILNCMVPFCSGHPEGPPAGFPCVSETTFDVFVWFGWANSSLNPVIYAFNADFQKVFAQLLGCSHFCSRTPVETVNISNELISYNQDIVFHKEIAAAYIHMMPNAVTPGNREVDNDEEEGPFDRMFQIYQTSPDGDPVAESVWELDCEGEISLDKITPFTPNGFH

[14] = target: Alpha-1D adrenergic receptor (Homo sapiens, UniProt P25100); assay: Displacement of [3H]prazosin from recombinant human alpha1D receptor measured after 60 mins by scintillation counting analysis
[15] = target: 5-hydroxytryptamine receptor 2A (Homo sapiens, UniProt P28223); assay: Displacement of [125I](+/-)DOI from recombinant human 5-HT2A receptor measured after 60 mins by scintillation counting analysis
[16] = target: 5-hydroxytryptamine receptor 2C (Homo sapiens, UniProt P28335); assay: Displacement of [125I](+/-)DOI from recombinant human 5-HT2C receptor measured after 60 mins by scintillation counting analysis
[17] = target: 5-hydroxytryptamine receptor 6 (Homo sapiens, UniProt P50406); assay: Displacement of [3H]LSD from recombinant human 5-HT6 receptor measured after 120 mins by scintillation counting analysis
[18] = target: Alpha-1A adrenergic receptor (Homo sapiens, UniProt P35348); assay: Displacement of [3H]prazosin from recombinant human alpha1A receptor measured after 60 mins by scintillation counting analysis
[19] = target: Alpha-2B adrenergic receptor (Homo sapiens, UniProt P18089); assay: Displacement of [3H]RX 821002 from recombinant human alpha2B receptor measured after 60 mins by scintillation counting analysis
Alpha-2B adrenergic receptor, sequence (P18089 whole entry): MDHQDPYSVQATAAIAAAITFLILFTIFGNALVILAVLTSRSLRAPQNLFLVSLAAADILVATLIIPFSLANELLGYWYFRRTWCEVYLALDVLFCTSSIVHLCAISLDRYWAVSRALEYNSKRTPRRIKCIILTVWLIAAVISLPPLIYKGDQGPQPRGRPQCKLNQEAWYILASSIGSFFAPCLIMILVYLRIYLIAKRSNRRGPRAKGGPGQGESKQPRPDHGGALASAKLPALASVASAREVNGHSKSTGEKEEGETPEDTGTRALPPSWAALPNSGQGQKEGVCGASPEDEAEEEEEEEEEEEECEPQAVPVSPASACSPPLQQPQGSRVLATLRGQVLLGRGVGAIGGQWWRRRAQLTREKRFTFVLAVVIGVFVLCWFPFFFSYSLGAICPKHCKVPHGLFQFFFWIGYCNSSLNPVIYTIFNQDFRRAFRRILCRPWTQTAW

[20] = target: 5-hydroxytryptamine receptor 1A (Homo sapiens, UniProt P08908); assay: Displacement of [3H]8-OH-DPAT from recombinant human 5-HT1A receptor measured after 60 mins by scintillation counting analysis
5-hydroxytryptamine receptor 1A, sequence (P08908 whole entry): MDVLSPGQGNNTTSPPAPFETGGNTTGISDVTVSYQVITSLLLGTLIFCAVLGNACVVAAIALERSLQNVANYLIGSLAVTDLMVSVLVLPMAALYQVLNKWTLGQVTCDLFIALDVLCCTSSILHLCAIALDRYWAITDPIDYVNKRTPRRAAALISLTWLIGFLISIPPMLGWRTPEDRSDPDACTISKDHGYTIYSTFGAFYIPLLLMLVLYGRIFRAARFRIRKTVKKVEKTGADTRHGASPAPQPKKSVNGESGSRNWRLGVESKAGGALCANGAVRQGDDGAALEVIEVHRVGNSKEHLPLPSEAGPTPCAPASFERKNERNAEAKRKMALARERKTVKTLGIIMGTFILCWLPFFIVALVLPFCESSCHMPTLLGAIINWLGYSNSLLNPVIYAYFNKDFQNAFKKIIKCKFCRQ

[21] = target: 5-hydroxytryptamine receptor 2B (Homo sapiens, UniProt P41595); assay: Displacement of [125I](+/-)DOI from recombinant human 5-HT2B receptor measured after 60 mins by scintillation counting analysis
5-hydroxytryptamine receptor 2B, sequence (P41595 whole entry): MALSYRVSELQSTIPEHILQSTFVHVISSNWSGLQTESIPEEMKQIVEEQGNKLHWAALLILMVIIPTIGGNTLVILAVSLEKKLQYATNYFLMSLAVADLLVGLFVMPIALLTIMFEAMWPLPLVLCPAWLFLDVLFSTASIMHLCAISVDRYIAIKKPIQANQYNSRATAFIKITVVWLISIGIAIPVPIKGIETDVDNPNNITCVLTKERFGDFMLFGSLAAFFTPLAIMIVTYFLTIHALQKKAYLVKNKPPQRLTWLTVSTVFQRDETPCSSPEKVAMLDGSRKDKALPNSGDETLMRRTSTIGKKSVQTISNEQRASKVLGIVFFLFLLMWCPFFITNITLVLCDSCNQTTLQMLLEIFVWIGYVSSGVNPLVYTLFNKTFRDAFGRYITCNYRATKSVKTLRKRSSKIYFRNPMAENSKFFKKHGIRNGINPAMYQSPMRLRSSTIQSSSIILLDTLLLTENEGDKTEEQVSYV

[22] = target: D(4) dopamine receptor (Homo sapiens, UniProt P21917); assay: Displacement of [3H]methyl-spiperone from recombinant human D4.4 receptor measured after 60 mins by scintillation counting analysis
D(4) dopamine receptor, sequence (P21917 whole entry): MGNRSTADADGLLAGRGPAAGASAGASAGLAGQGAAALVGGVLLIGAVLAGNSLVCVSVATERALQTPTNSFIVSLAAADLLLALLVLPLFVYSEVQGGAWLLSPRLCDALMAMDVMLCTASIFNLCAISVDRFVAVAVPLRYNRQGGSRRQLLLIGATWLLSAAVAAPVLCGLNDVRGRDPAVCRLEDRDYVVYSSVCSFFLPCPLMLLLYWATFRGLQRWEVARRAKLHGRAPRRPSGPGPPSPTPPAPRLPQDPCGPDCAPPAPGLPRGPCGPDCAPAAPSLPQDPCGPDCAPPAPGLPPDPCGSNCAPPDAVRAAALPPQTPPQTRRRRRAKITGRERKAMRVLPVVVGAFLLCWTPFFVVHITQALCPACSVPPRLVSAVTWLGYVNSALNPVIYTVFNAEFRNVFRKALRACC

[23] = target: Alpha-1B adrenergic receptor (Homo sapiens, UniProt P35368); assay: Displacement of [3H]prazosin from recombinant human alpha1B receptor measured after 60 mins by scintillation counting analysis
[24] = target: 5-hydroxytryptamine receptor 1B (Rattus norvegicus, UniProt P28564); assay: Displacement of [125I]CYP from rat brain 5HT1B receptor measured after 120 mins by scintillation counting analysis
5-hydroxytryptamine receptor 1B, sequence (P28564 whole entry): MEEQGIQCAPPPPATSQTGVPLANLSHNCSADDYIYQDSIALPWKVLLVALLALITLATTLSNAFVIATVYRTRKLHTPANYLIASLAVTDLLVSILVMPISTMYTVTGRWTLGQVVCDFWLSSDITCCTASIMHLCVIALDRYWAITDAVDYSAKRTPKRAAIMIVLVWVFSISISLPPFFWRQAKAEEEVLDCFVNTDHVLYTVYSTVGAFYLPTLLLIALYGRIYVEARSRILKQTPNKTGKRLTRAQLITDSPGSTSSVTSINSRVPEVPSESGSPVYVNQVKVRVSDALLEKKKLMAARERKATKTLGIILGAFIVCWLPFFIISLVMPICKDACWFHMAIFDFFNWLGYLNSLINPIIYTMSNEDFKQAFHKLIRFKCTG

[25] = target: Alpha-2A adrenergic receptor (Homo sapiens, UniProt P08913); assay: Displacement of [3H]RX 821002 from recombinant human alpha2A receptor measured after 60 mins by scintillation counting analysis
Alpha-2A adrenergic receptor, sequence (P08913 whole entry): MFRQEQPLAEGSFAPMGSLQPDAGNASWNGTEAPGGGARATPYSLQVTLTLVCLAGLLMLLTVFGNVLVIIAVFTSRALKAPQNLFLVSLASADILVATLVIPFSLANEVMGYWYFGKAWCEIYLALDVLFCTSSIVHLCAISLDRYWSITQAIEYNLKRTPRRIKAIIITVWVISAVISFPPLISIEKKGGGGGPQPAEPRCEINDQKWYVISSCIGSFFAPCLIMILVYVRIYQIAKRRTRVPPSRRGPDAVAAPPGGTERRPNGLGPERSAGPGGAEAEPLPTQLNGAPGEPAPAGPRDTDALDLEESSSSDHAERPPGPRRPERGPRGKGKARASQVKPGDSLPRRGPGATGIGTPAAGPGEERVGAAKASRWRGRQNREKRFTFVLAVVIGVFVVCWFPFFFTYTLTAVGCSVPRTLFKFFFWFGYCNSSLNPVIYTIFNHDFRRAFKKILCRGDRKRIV

[26] = target: Sodium-dependent dopamine transporter (Homo sapiens, UniProt Q01959); assay: Displacement of [3H]BTCP from recombinant human DAT measured after 120 mins by scintillation counting analysis
[27] = target: D(1A) dopamine receptor (Homo sapiens, UniProt P21728); assay: Displacement of [3H]SCH 23390 from recombinant human D1 receptor measured after 60 mins by scintillation counting analysis
[28] = target: Alpha-2C adrenergic receptor (Homo sapiens, UniProt P18825); assay: Displacement of [3H]RX 821002 from recombinant human alpha2C receptor measured after 60 mins by scintillation counting analysis
[29] = target: 5-hydroxytryptamine receptor 7 (Homo sapiens, UniProt P34969); assay: Displacement of [3H]LSD from recombinant human 5-HT7 receptor measured after 120 mins by scintillation counting analysis
5-hydroxytryptamine receptor 7, sequence (P34969 whole entry): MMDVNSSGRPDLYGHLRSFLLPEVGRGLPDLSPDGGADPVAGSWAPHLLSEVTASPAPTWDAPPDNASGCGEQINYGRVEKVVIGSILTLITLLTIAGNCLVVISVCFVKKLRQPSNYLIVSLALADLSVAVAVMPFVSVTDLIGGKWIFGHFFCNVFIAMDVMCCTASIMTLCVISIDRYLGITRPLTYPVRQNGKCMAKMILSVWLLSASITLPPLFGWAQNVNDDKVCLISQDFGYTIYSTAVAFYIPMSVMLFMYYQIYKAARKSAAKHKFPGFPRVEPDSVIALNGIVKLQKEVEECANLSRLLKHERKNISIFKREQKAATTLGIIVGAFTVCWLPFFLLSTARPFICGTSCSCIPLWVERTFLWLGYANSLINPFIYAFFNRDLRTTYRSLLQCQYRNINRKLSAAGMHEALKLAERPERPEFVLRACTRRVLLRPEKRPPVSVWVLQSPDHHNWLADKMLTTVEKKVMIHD

[30] = target: D(2) dopamine receptor (Homo sapiens, UniProt P14416); assay: Displacement of [3H]7-OH-DPAT from recombinant human D2S receptor measured after 60 mins by scintillation counting analysis

Drug metabolism [1]	Drug metabolism [2]	Drug metabolism [3]	Drug metabolism [4]	Ki [11]	Ki [12]	Ki [13]	Ki [14]	Ki [16]	Ki [18]	Ki [19]	Ki [20]	Ki [21]	Ki [22]	Ki [23]	Ki [24]	Ki [25]	Ki [26]	Ki [28]	Ki [29]	other results	SMILES
Metabolite_Detected	Metabolite_Detected	Metabolite_Detected	Metabolite_Detected	–	–	–	–	–	–	–	–	–	–	–	–	–	–	–	–	–	[2H]c1c([2H])c([2H])c([C@@H]2C[C@@H](N3CCN(C)C(C)(C)C3)c3cc(Cl)ccc32)c([2H])c1[2H]
–	–	–	–	–	–	–	–	–	–	–	–	–	–	–	–	–	–	–	–	Drug metabolism [5]: Metabolite_Detected; Drug metabolism [6]: Metabolite_Detected; Drug metabolism [7]: Metabolite_Detected; Drug metabolism [8]: Metabolite_Detected; Drug metabolism [9]: Metabolite_Detected; Drug metabolism [10]: Metabolite_Detected	CN1CCN([C@@H]2C[C@@H](c3ccccc3)c3ccc(Cl)cc32)CC1(C)C [ZICRONAPINE]
–	–	–	–	59 nM	6.6 nM	0.67 nM	35 nM	1.1 nM	13 nM	490 nM	420 nM	0.39 nM	11 nM	11 nM	660 nM	2500 nM	510 nM	160 nM	11 nM	Ki [15]: 0.84 nM; Ki [17]: 0.73 nM; Ki [27]: 1 nM; Ki [30]: 11 nM	[2H]c1c([2H])c([2H])c([C@@H]2C[C@@H](N3CCNC(C)(C)C3)c3cc(Cl)ccc32)c([2H])c1[2H]
Metabolite_Detected	Metabolite_Detected	Metabolite_Detected	Metabolite_Detected	16 nM	4 nM	0.37 nM	9.5 nM	1.5 nM	3.4 nM	47 nM	89 nM	0.4 nM	6.8 nM	2.9 nM	170 nM	560 nM	4200 nM	9.7 nM	3.8 nM	–	[2H]c1c([2H])c([2H])c([C@@H]2C[C@@H](N3CCN(C([2H])([2H])[2H])C(C)(C)C3)c3cc(Cl)ccc32)c([2H])c1[2H]
